The text below walks through data of patent US12523664B2, “Sensor chip and methods thereof” (NATIONAL UNIVERSITY OF SINGAPORE, priority 2019, dated 2026).

The test has as its target amylogenic protein (Homo sapiens, UniProt P05067). Briefly: Protein aggregation with or without inhibitor, aggregate size by dynamic light scattering. The test is classed as biochemical. The settings on record: 10 μM inhibitor added before 1 h incubation with agitation. As for the experimental part: Aggregate size determination. Hydrodynamic diameter of amylogenic protein and BSA aggregates were determined by dynamic light scattering analysis (Zetasizer Nano ZSP, Malvern). 3×14 measurement runs were performed at 4° C. Z-average diameter and polydispersity were analyzed. For every measurement, the auto-correlation function and polydispersity index were monitored to ensure sample quality for size determination.
Protein aggregation. Lyophilized amylogenic protein was resuspended in NaOH (60 mM, 4° C.), sonicated, and pH adjusted to pH 7.4 in PBS. The protein was immediately filtered through a 0.2-μm membrane filter (Millipore) and the filtrate was used as the small initial aggregates. For preparation of the bigger aggregates, the protein was treated as described above and incubated with agitation for 1 h to induce further aggregation. […] Aggregate size determination was performed at the end of the incubation.

SMILES strings stand for the structures. “Also recorded” adds a separate entry of the source.

Chain of amylogenic protein (P05067 672-713 limits assumed): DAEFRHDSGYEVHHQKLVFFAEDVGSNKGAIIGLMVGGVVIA

Consider `CN(C)c1ccc2nc3ccc(=[N+](C)C)cc-3sc2c1` [inhibitor, methylene blue], for which the “increase in size as a result of spontaneous protein aggregation” value is “reduced spontaneous protein aggregation; also recorded: minimal”.
